Laboratory results: US8802597B2, “Herbicidal pyrimidines” (E I du Pont de Nemours and Company, priority 2003, dated 2014)

Tests used:
Type in all cases: in vivo
[1] = tested on: velvetleaf (Abutilon theophrasti); test: Test B pre/postemergence
Procedure, shortened: (§1)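 Following sowing, compounds in a surfactant-bearing non-phytotoxic solvent were applied preemergence; emerged plants 2 to 18 cm high got postemergence treatment concurrently. Evaluation: 13 to 15 days later, greenhouse, 0–100 visual scale.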

[2] = tested on: pigweed (Amaranthus retroflexus); test: Test B pre/postemergence
Procedure, shortened: as §1

[3] = tested on: wheat (Triticum aestivum); test: Test B pre/postemergence
Procedure, shortened: as §1

[4] = tested on: Surinam grass (Brachiaria decumbens); test: Test B pre/postemergence
Procedure, shortened: as §1

[5] = tested on: morningglory (Ipomoea coccinea); test: Test B pre/postemergence
Procedure, shortened: as §1

[6] = tested on: cocklebur (Xanthium strumarium); test: Test B pre/postemergence
Procedure, shortened: as §1

[7] = tested on: barnyardgrass (Echinochloa crus-galli); test: Test B pre/postemergence
Procedure, shortened: as §1

[8] = tested on: lambsquarters (Chenopodium album); test: Test B pre/postemergence
Procedure, shortened: as §1

[9] = tested on: crabgrass (Digitaria sanguinalis); test: Test B pre/postemergence
Procedure, shortened: as §1

[10] = tested on: corn (Zea mays); test: Test B pre/postemergence; conditions: for Corn plant response rating: scale 0 to 100 (0 no effect, 100 complete control)
Procedure, shortened: as §1

[11] = tested on: giant foxtail (Setaria faberii); test: Test B pre/postemergence
Procedure, shortened: as §1

[12] = tested on: rice (Oryza sativa); test: Test B flooded paddy test; conditions: Flood, 1000 g ai/ha; scale 0 to 100
Procedure, shortened: (§2)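 Plants were grown to the 2-leaf stage before treatment, then kept in a greenhouse for 13 to 15 days. Injury was rated visually against untreated controls on a 0 to 100 scale, where 0 is no effect and 100 is complete control.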

[13] = tested on: umbrella sedge (Cyperus difformis); test: Test B flooded paddy test; conditions: Flood, 1000 g ai/ha; scale 0 to 100
Procedure, shortened: as §2

[14] = tested on: barnyardgrass (Echinochloa crus-galli); test: Test B flooded paddy test; conditions: Flood, 1000 g ai/ha; scale 0 (no effect) to 100 (complete control)
Procedure, shortened: as §2

[15] = tested on: duck salad (Heteranthera limosa); test: Test B flooded paddy test; conditions: Flood, 1000 g ai/ha; scale 0 to 100
Procedure, shortened: as §2

[16] = tested on: blackgrass (Alopecurus myosuroides); test: Test B postemergence; conditions: for Blackgrass plant response rating: scale 0 to 100 (0 no effect, 100 complete control); for Plant response rating, Blackgrass: 500 g ai/ha, scale 0 to 100
Procedure, shortened: as §1

[17] = tested on: wild oat (Avena fatua); test: Test B postemergence; conditions: for Oat, Wild plant response rating: scale 0 to 100 (0 no effect, 100 complete control); for Plant response rating, Oat, Wild: 500 g ai/ha, scale 0 to 100
Procedure, shortened: as §1

[18] = Postemergence, 125 g ai/ha, scale 0 to 100 (0 no effect, 100 complete control)
[19] = Postemergence, 500 g ai/ha, scale 0 to 100
[20] = Preemergence, 125 g ai/ha, scale 0 to 100 (0 no effect, 100 complete control)
[21] = Preemergence, 500 g ai/ha, scale 0 to 100 (0 no effect, 100 complete control)
[22] = Postemergence, 62 g ai/ha, scale 0 to 100 (0 no effect, 100 complete control)
[23] = Preemergence, 62 g ai/ha, scale 0 to 100, 0 no effect, 100 complete control

Question: What does the source list for `COC(=O)Cc1nc(C2CC2)nc(N)c1Br` [Compound 13]?
Answer: Velvetleaf plant response rating [1, 18]: 40; Plant response rating, Velvetleaf [1, 19]: 50; Plant response rating, Velvetleaf [1, 20]: 80; Velvetleaf plant response rating [1, 21]: 90; Pigweed plant response rating [2, 18]: 50; Plant response rating, Pigweed [2, 19]: 70; Plant response rating, Pigweed [2, 20]: 80; Pigweed plant response rating [2, 21]: 90; Wheat plant response rating [3, 18]: 0; Plant response rating, Wheat [3, 19]: 0; Plant response rating, Wheat [3, 20]: 40; Wheat plant response rating [3, 21]: 60; Surinam Grass plant response rating [4, 18]: 0; Plant response rating, Surinam Grass [4, 19]: 0; Plant response rating, Surinam Grass [4, 20]: 0; Morningglory plant response rating [5, 18]: 50; Plant response rating, Morningglory [5, 19]: 70; Plant response rating, Morningglory [5, 20]: 90; Morningglory plant response rating [5, 21]: 100; Cocklebur plant response rating [6, 18]: 10; Plant response rating, Cocklebur [6, 19]: 40; Plant response rating, Cocklebur [6, 20]: 90; Cocklebur plant response rating [6, 21]: 100; Barnyardgrass plant response rating [7, 18]: 0; Plant response rating, Barnyardgrass [7, 19]: 10; Plant response rating, Barnyardgrass [7, 20]: 40; Barnyardgrass plant response rating [7, 21]: 80; Lambsquarters plant response rating [8, 18]: 60; Plant response rating, Lambsquarters [8, 19]: 70; Plant response rating, Lambsquarters [8, 20]: 90; Lambsquarters plant response rating [8, 21]: 100; Crabgrass plant response rating [9, 18]: 20; Plant response rating, Crabgrass [9, 19]: 30; Plant response rating, Crabgrass [9, 20]: 50; Crabgrass plant response rating [9, 21]: 70; Corn plant response rating ([10]; Postemergence, 125 g ai/ha): 0; Plant response rating, Corn [10, 19]: 0; Corn plant response rating ([10]; Preemergence, 500 g ai/ha): 30; Foxtail, Giant plant response rating [11, 18]: 10; Plant response rating, Foxtail, Giant [11, 19]: 20; Plant response rating, Foxtail, Giant [11, 20]: 20; Foxtail, Giant plant response rating [11, 21]: 40; Plant response rating, Rice [12]: 0; Plant response rating, Sedge, Umbrella [13]: 0; Plant response rating, Barnyardgrass [14]: 0; Plant response rating, Ducksalad [15]: 0; Blackgrass plant response rating ([16]; 125 g ai/ha): 10; Plant response rating, Blackgrass [16]: 20; Oat, Wild plant response rating ([17]; 125 g ai/ha): 0; Plant response rating, Oat, Wild [17]: 0

Question: What does the source list for `CCOC(=O)C(Cl)c1nc(C2CC2)nc(N)c1Br` (stereo not drawn) [Compound 31]?
Answer: Velvetleaf plant response rating [1, 22]: 10; Plant response rating, Velvetleaf [1, 19]: 60; Plant response rating, Velvetleaf [1, 23]: 80; Velvetleaf plant response rating [1, 21]: 90; Pigweed plant response rating [2, 22]: 20; Plant response rating, Pigweed [2, 19]: 50; Plant response rating, Pigweed [2, 23]: 90; Pigweed plant response rating [2, 21]: 100; Wheat plant response rating [3, 22]: 0; Plant response rating, Wheat [3, 19]: 0; Plant response rating, Wheat [3, 23]: 40; Wheat plant response rating [3, 21]: 70; Surinam Grass plant response rating [4, 22]: 0; Plant response rating, Surinam Grass [4, 19]: 0; Plant response rating, Surinam Grass [4, 23]: 20; Surinam Grass plant response rating [4, 21]: 60; Morningglory plant response rating [5, 22]: 50; Plant response rating, Morningglory [5, 19]: 70; Plant response rating, Morningglory [5, 23]: 90; Morningglory plant response rating [5, 21]: 100; Cocklebur plant response rating [6, 22]: 70; Plant response rating, Cocklebur [6, 19]: 80; Plant response rating, Cocklebur [6, 23]: 90; Cocklebur plant response rating [6, 21]: 100; Barnyardgrass plant response rating [7, 22]: 0; Plant response rating, Barnyardgrass [7, 19]: 0; Plant response rating, Barnyardgrass [7, 23]: 20; Barnyardgrass plant response rating [7, 21]: 70; Lambsquarters plant response rating [8, 22]: 40; Plant response rating, Lambsquarters [8, 19]: 70; Plant response rating, Lambsquarters [8, 23]: 90; Lambsquarters plant response rating [8, 21]: 100; Crabgrass plant response rating [9, 22]: 0; Plant response rating, Crabgrass [9, 19]: 30; Plant response rating, Crabgrass [9, 23]: 10; Crabgrass plant response rating [9, 21]: 80; Corn plant response rating ([10]; Postemergence, 62 g ai/ha): 0; Plant response rating, Corn [10, 19]: 0; Plant response rating, Corn [10, 23]: 0; Corn plant response rating ([10]; Preemergence, 500 g ai/ha): 40; Foxtail, Giant plant response rating [11, 22]: 0; Plant response rating, Foxtail, Giant [11, 19]: 0; Plant response rating, Foxtail, Giant [11, 23]: 10; Foxtail, Giant plant response rating [11, 21]: 80; Plant response rating, Rice [12]: 20; Plant response rating, Sedge, Umbrella [13]: 0; Plant response rating, Barnyardgrass [14]: 30; Plant response rating, Ducksalad [15]: 60; Blackgrass plant response rating ([16]; 62 g ai/ha): 0; Plant response rating, Blackgrass [16]: 0; Oat, Wild plant response rating ([17]; 62 g ai/ha): 0; Plant response rating, Oat, Wild [17]: 0
